Measurements reported in US10287255B2, “Compounds as histone deacetylase 6 inhibitors and pharmaceutical compositions comprising the same” (CHONG KUN DANG PHARMACEUTICAL CORP., priority 2014, dated 2019).

Key:
human recombinant HDAC6 = biological target: T1, human recombinant HDAC6 (Homo sapiens, UniProt Q9UBN7); test: HDAC6 enzyme activity inhibition assay (in vitro, fluorimetric); format: biochemical; conditions: for HDAC6 selectivity (fold): HDAC6 selectivity over HDAC1; for IC50: human recombinant HDAC6, fluorimetric kit, same protocol as HDAC1
T1 construct: purchased Calbiochem 382180
T1 sequence (Q9UBN7 1-1215): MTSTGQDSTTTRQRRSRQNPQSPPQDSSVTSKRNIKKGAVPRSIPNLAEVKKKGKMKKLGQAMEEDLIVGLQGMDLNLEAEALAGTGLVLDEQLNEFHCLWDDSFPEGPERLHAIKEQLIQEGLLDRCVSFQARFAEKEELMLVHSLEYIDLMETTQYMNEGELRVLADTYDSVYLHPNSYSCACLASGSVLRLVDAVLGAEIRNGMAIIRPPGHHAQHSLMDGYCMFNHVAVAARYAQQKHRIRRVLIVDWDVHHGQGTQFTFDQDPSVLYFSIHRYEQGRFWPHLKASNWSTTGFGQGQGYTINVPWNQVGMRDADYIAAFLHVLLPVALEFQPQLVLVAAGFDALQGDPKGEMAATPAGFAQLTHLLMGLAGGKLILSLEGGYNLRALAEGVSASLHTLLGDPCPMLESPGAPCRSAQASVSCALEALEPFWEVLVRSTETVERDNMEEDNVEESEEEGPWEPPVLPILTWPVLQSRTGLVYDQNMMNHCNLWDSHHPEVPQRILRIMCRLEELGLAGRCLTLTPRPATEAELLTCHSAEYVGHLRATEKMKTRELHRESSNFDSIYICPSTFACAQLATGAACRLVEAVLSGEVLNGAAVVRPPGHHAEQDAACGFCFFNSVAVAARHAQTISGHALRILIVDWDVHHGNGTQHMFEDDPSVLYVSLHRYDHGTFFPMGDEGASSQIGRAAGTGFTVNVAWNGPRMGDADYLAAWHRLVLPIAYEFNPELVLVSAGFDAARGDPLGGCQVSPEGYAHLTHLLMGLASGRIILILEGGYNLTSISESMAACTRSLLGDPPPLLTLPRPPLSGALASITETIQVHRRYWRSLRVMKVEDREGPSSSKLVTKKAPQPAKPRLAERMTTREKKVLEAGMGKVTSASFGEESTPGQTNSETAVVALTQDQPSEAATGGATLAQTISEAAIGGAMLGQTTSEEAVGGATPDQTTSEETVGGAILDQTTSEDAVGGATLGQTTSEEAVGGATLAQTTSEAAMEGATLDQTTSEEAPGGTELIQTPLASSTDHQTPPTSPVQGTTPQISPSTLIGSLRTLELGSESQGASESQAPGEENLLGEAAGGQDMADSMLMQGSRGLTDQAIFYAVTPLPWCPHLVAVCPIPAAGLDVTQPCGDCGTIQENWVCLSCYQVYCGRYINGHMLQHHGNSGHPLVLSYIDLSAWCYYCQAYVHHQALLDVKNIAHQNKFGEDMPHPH
Outline: (§1)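 Human recombinant enzyme (0.3 μg for HDAC1) reacted with 10 μM Fluor de Lys-SIRT1 substrate and 5-fold compound dilutions at 30 °C for 60 min, then developer for 30 min. Fluorescence read at Ex 360/Em 460; IC50 calculated. HDAC6 run by the same protocol.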

human recombinant HDAC1 = biological target: T2, human recombinant HDAC1 (Homo sapiens, UniProt Q13547); test: HDAC1 enzyme activity inhibition assay (in vitro, fluorimetric); format: biochemical; conditions: human recombinant HDAC1, fluorimetric kit, 30° C. 60 minutes
T2 construct: purchased Enzo Life Science BML-SE456
T2 sequence (Q13547 whole entry): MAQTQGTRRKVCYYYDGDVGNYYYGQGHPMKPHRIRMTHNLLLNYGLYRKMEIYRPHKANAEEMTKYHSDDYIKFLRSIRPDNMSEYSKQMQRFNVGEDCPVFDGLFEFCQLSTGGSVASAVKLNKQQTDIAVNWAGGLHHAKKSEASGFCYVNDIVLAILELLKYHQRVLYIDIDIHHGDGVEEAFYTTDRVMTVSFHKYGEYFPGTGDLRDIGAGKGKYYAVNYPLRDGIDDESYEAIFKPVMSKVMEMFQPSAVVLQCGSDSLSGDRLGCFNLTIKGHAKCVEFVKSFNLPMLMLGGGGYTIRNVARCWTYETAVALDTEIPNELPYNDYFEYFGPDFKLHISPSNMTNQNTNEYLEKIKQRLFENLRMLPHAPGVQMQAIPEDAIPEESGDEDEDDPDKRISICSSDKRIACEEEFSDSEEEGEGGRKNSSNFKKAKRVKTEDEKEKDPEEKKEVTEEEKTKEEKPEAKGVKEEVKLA
Outline: as §1

SMILES	HDAC6 selectivity (fold) (human recombinant HDAC6)	IC50 (human recombinant HDAC6) [nM]	IC50 (human recombinant HDAC1) [nM]
C[C@@H]1CN(Cc2ccc(C(=O)NO)cc2)C[C@H](C)N1C(=O)c1ccccc1-c1ccncc1 [Compound 285, 4-(((3R,5S)-3,5-dimethyl-4-(2-(pyridin-4-yl)benzoyl)piperazin-1-yl)methyl)-N-hydroxybenzamide]	75	93	7000
C[C@@H]1CN(Cc2ccc(C(=O)NO)cc2)C[C@H](C)N1C(=O)c1ccccc1-c1cccnc1 [Compound 286, 4-(((3R,5S)-3,5-dimethyl-4-(2-(pyridin-3-yl)benzoyl)piperazin-1-yl)methyl)-N-hydroxybenzamide]	81	161	13100
C[C@@H]1CN(Cc2ccc(C(=O)NO)cc2)C[C@H](C)N1C(=O)c1ccccc1C1=CCC(C)(C)CC1 [Compound 288, 4-(((3R,5S)-4-(4′,4′-dimethyl-2′,3′,4′,5′-tetrahydro-[1,1′-biphenyl]-2-carbonyl)-3,5-dimethylpiperazin-1-yl)methyl)-N-hydroxybenzamide]	33	326	10700
Cc1ccc(C(=O)N2[C@H](C)CN(Cc3ccc(C(=O)NO)cc3)C[C@@H]2C)cc1 [Compound 290, 4-(((3R,5S)-3,5-dimethyl-4-(4-methylbenzoyl)piperazin-1-yl)methyl)-N-hydroxybenzamide]	48	79	3800
COc1ccc(C(=O)N2[C@H](C)CN(Cc3ccc(C(=O)NO)cc3)C[C@@H]2C)cc1 [Compound 291, N-hydroxy-4-(((3R,5S)-4-(4-methoxybenzoyl)-3,5-dimethylpiperazin-1-yl)methyl)benzamide]	24	55	1300
C[C@@H]1CN(Cc2ccc(C(=O)NO)cc2)C[C@H](C)N1C(=O)C(C)(C)C [Compound 292, 4-(((3R,5S)-3,5-dimethyl-4-pivaloylpiperazin-1-yl)methyl)-N-hydroxybenzamide]	76	74	5600
CCC(=O)N1[C@H](C)CN(Cc2ccc(C(=O)NO)cc2)C[C@@H]1C [Compound 293, 4-(((3R,5S)-3,5-dimethyl-4-propionylpiperazin-1-yl)methyl)-N-hydroxybenzamide]	44	131	5800
CCCC(=O)N1[C@H](C)CN(Cc2ccc(C(=O)NO)cc2)C[C@@H]1C [Compound 294, 4-(((3R,5S)-4-butyryl-3,5-dimethylpiperazin-1-yl)methyl)-N-hydroxybenzamide]	37	220	8200
C[C@@H]1CN(Cc2ccc(C(=O)NO)cc2)C[C@H](C)N1C(=O)C1CC1 [Compound 295, 4-(((3R,5S)-4-(cyclopropanecarbonyl)-3,5-dimethylpiperazin-1-yl)methyl)-N-hydroxybenzamide]	72	79	5700
CC(C)C(=O)N1[C@H](C)CN(Cc2ccc(C(=O)NO)cc2)C[C@@H]1C [Compound 296, N-hydroxy-4-(((3R,5S)-4-isobutyryl-3,5-dimethylpiperazin-1-yl)methyl)benzamide]	34	204	6900
CC(C)CC(=O)N1[C@H](C)CN(Cc2ccc(C(=O)NO)cc2)C[C@@H]1C [Compound 297, 4-(((3R,5S)-3,5-dimethyl-4-(3-methylbutanoyl)piperazin-1-yl)methyl)-N-hydroxybenzamide]	62	90	5600
C[C@@H]1CN(Cc2cccc(C(F)(F)F)c2)C[C@H](C)N1Cc1ccc(C(=O)NO)cc1 [Compound 298, 4-(((2S,6R)-2,6-dimethyl-4-(3-(trifluoromethyl)benzyl)piperazin-1-yl)methyl)-N-hydroxybenzamide]	15	369	5500
C[C@@H]1CN(Cc2ccc(N(C)C)cc2)C[C@H](C)N1Cc1ccc(C(=O)NO)cc1 [Compound 299, 4-(((2S,6R)-4-(4-(dimethylamino)benzyl)-2,6-dimethylpiperazin-1-yl)methyl)-N-hydroxybenzamide]	5	243	1200
C[C@@H]1CN(Cc2ccc(S(C)(=O)=O)cc2)C[C@H](C)N1Cc1ccc(C(=O)NO)cc1 [Compound 300, 4-(((2S,6R)-2,6-dimethyl-4-(4-(methylsulfonyl)benzyl)piperazin-1-yl)methyl)-N-hydroxybenzamide]	7	530	3700
C[C@@H]1CN(Cc2ccc(-n3ccnc3)cc2)C[C@H](C)N1Cc1ccc(C(=O)NO)cc1 [Compound 301, 4-(((2S,6R)-4-(4-(1H-imidazol-1-yl)benzyl)-2,6-dimethylpiperazin-1-yl)methyl)-N-hydroxybenzamide]	11	253	2800
C[C@@H]1CN(Cc2ccc(-c3cccs3)cc2)C[C@H](C)N1Cc1ccc(C(=O)NO)cc1 [Compound 302, 4-(((2S,6R)-2,6-dimethyl-4-(4-(thiophen-2-yl)benzyl)piperazin-1-yl)methyl)-N-hydroxybenzamide]	3	1130	3600
C[C@@H]1CN(Cc2ccc(-c3ccco3)cc2)C[C@H](C)N1Cc1ccc(C(=O)NO)cc1 [Compound 303, 4-(((2S,6R)-4-(4-(furan-2-yl)benzyl)-2,6-dimethylpiperazin-1-yl)methyl)-N-hydroxybenzamide]	3	1110	2900
C[C@@H]1CN(Cc2ccc(-n3cnnc3)cc2)C[C@H](C)N1Cc1ccc(C(=O)NO)cc1 [Compound 304, 4-(((2S,6R)-4-(4-(4H-1,2,4-triazol-4-yl)benzyl)-2,6-dimethylpiperazin-1-yl)methyl)-N-hydroxybenzamide]	8	280	2300
Cc1nccn1-c1ccccc1CN1C[C@@H](C)N(Cc2ccc(C(=O)NO)cc2)[C@@H](C)C1 [Compound 305, 4-(((2S,6R)-2,6-dimethyl-4-(2-(2-methyl-1H-imidazol-1-yl)benzyl)piperazin-1-yl)methyl)-N-hydroxybenzamide]	174	32	5600
C[C@@H]1CN(Cc2ccc(C(=O)NO)cc2)C[C@H](C)N1Cc1ccc(-c2ccoc2)cc1 [Compound 309, 4-(((3R,5S)-4-(4-(furan-3-yl)benzyl)-3,5-dimethylpiperazin-1-yl)methyl)-N-hydroxybenzamide]	21	73	1600
C[C@@H]1CN(Cc2ccc(/C=C/C(=O)NO)cc2)C[C@H](C)N1C(=O)Nc1cccc(-n2cccc2)c1 [Compound 321, (2S,6R)-N-(3-(1H-pyrrol-1-yl)phenyl)-4-(4-((E)-3-(hydroxyamino)-3-oxoprop-1-en-1-yl)benzyl)-2,6-dimethylpiperazine-1-carboxamide]	8	125	1100
C[C@@H]1CN(Cc2ccc(/C=C/C(=O)NO)cc2)C[C@H](C)N1C(=O)c1ccco1 [Compound 322, (E)-3-(4-(((3R,5S)-4-(furan-2-carbonyl)-3,5-dimethylpiperazin-1-yl)methyl)phenyl)-N-hydroxyacrylamide]	6	175	1100
C[C@@H]1CN(Cc2ccc(/C=C/C(=O)NO)cc2)C[C@H](C)N1C(=O)Cc1ccccc1 [Compound 323, (E)-3-(4-(((3R,5S)-3,5-dimethyl-4-(2-phenylacetyl)piperazin-1-yl)methyl)phenyl)-N-hydroxyacrylamide]	>11	921	> 10000
